Measurements reported in ChEMBL document CHEMBL6177974, “Synthesis and Pharmacological Characterization of Novel Peripheral Cannabinoid-1 Receptor Blockers Based on a Tricyclic Scaffold” (J Med Chem, 2025).
Active and inactive are the calls of the source. The rule behind the calls is not given here.

Assays:
Mus musculus [1] = assay: Inhibition of WIN55212-induced catalepsy in male C57Bl/6J mouse at 10 mg/kg, po; assay type: functional, organism-based
[2] = molecular target: Cannabinoid receptor 1 (Mus musculus) (UniProt P47746); assay: Antagonist activity at CB1R in C57Bl/6Jhsd mouse cortex membrane assessed as inhibition of [35S]GTPgammaS binding incubated for 1 hr by liquid scintillation counter analysis; assay type: functional, cell membranes; details: filed as antagonist
[3] = Stability in SGF at pH 1.2 by HPLC analysis; assay type: physicochemical; details: simulated gi fluid
[4] = Stability in SIF at pH 6.8 by HPLC analysis; assay type: physicochemical; details: simulated gi fluid
[5] = Protein binding in mouse brain at 1 uM measured after 5 hrs by equilibrium dialysis method; assay type: ADME, tissue-based
[6] = Mutagenicity in Salmonella typhimurium TA98 incubated for 48 to 72 hrs in presence of liver S9 fraction by mini-Ames test; assay type: toxicity, subcellular; details: salmonella enterica subsp. enterica serovar typhimurium, time 48-72 hrs
[7] = Mutagenicity in Salmonella typhimurium TA100 incubated for 48 to 72 hrs in presence of liver S9 fraction by mini-Ames test; assay type: toxicity, subcellular; details: salmonella enterica subsp. enterica serovar typhimurium, time 48-72 hrs
[8] = Toxicity in male C57Bl/6J mouse assessed as CNS-mediated hyperactivity at 1 to 10 mg/kg, po; assay type: organism-based; details: in vivo, dose 1-10 mg/kg
[9] = Toxicity in male C57Bl/6J mouse assessed as change in locomotor activity at 1 to 10 mg/kg, po; assay type: organism-based; details: in vivo, dose 1-10 mg/kg
Mus musculus [10] = assay: Inhibition of HU-210-induced hypoactivity in male C57Bl/6J mouse at 1 to 10 mg/kg, po; assay type: functional, organism-based; details: dose 1-10 mg/kg
Mus musculus [11] = assay: Anti-obese activity in diet-induced obese male C57Bl/6J mouse model assessed as decrease in body weight at 1 mg/kg/day, po treated for 24 days; assay type: functional, organism-based; details: time 24.0 day
Mus musculus [12] = assay: Anti-obese activity in diet-induced obese male C57Bl/6J mouse model assessed as decrease in total body fat at 1 mg/kg/day, po treated for 24 days by EchoMRI analysis; assay type: functional, organism-based; details: time 24.0 day
Mus musculus [13] = assay: Anti-obese activity in diet-induced obese male C57Bl/6J mouse model assessed as increase in lean body mass at 1 mg/kg/day, po treated for 24 days by EchoMRI analysis; assay type: functional, organism-based; details: time 24.0 day
Mus musculus [14] = assay: Anti-obese activity in diet-induced obese male C57Bl/6J mouse model assessed as reduction in glucose level in fasting condition at 1 mg/kg/day, po treated for 24 days; assay type: functional, organism-based; details: time 24.0 day
Mus musculus [15] = assay: Anti-obese activity in diet-induced obese male C57Bl/6J mouse model assessed as reduction in hypertriglyceridemia at 1 mg/kg/day, po treated for 24 days; assay type: functional, organism-based; details: time 24.0 day
Mus musculus [16] = assay: Anti-obese activity in diet-induced obese male C57Bl/6J mouse model assessed as reduction in hypercholesterolemia at 1 mg/kg/day, po treated for 24 days; assay type: functional, organism-based; details: time 24.0 day
Mus musculus [17] = assay: Anti-obese activity in diet-induced obese male C57Bl/6J mouse model assessed as reversal of hepatic steatosis at 1 mg/kg/day, po treated for 24 days by H and E staining based analysis; assay type: functional, organism-based; details: time 24.0 day
Mus musculus [18] = assay: Anti-obese activity in diet-induced obese male C57Bl/6J mouse model assessed as reversal of hepatocellular damage at 1 mg/kg/day, po treated for 24 days by H and E staining based analysis; assay type: functional, organism-based; details: time 24.0 day
Mus musculus [19] = assay: Anti-obese activity in diet-induced obese male C57Bl/6J mouse model assessed as reduction in liver triglyceride content at 1 mg/kg/day, po treated for 24 days; assay type: functional, organism-based; details: time 24.0 day
Mus musculus [20] = assay: Anti-obese activity in diet-induced obese male C57Bl/6J mouse model assessed as reduction in ALT level at 1 mg/kg/day, po treated for 24 days; assay type: functional, organism-based; details: time 24.0 day
Mus musculus [21] = assay: Anti-obese activity in diet-induced obese male C57Bl/6J mouse model assessed as reduction in AST level at 1 mg/kg/day, po treated for 24 days; assay type: functional, organism-based; details: time 24.0 day
Mus musculus [22] = assay: Anti-obese activity in diet-induced obese male C57Bl/6J mouse model assessed as reduction in ALP level at 1 mg/kg/day, po treated for 24 days; assay type: functional, organism-based; details: time 24.0 day
[23] = molecular target: Cannabinoid receptor 1 (Mus musculus) (UniProt P47746); assay: Inverse agonist activity at CB1R in C57Bl/6Jhsd mouse cortex membrane assessed as inhibition of [35S]GTPgammaS binding incubated for 1 hr by liquid scintillation counter analysis; assay type: functional, cell membranes; details: filed as inverse agonist

Sequence of Cannabinoid receptor 1 (Mus musculus) (P47746 whole entry): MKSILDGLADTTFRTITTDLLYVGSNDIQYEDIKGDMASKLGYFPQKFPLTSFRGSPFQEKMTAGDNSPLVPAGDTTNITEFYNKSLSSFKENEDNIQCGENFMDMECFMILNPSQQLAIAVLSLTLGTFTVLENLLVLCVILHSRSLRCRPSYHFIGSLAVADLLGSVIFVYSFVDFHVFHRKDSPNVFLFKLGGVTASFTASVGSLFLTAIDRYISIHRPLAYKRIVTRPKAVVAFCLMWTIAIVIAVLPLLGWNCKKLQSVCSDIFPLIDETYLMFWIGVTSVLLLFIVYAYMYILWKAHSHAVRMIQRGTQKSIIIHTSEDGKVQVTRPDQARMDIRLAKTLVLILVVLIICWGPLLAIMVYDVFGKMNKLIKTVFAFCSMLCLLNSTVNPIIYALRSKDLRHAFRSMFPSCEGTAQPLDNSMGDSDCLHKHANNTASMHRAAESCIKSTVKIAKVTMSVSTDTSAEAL

With `Cc1c(C(=O)NN2CCCCC2)nn(-c2ccc(Cl)cc2Cl)c1-c1ccc(Cl)cc1` the inhibition (Mus musculus [1]) was “Active”.
For `CNC(=O)N[C@H]1CCCOc2c1nn(-c1ccccc1Cl)c2-c1ccc(Cl)cc1`, the Activity [2] was “Active; Compound Exhibited As Neutral Antagonist”.
For `O=S(=O)(N[C@H]1CCCOc2c1nn(-c1ccccc1Cl)c2-c1ccc(Cl)cc1)c1ccc(Cl)cc1`, the Stability [3] was “Stable”, the Stability [4] was “Stable” and the PB [5] was “Active”. The Activity [6] was “Non-toxic”, the Activity [7] was “Non-toxic” and the Activity [8] was “Non-toxic”. For the same compound, the Activity [9] was “Non-toxic”, the inhibition (Mus musculus [10]) was “inactive” and the Activity (Mus musculus [11]) was “Active”. The Activity (Mus musculus [12]) was “Active”, the Activity (Mus musculus [13]) was “Active” and the Activity (Mus musculus [14]) was “Active”. The Activity (Mus musculus [15]) was “Active”, the Activity (Mus musculus [16]) was “Active” and the Activity (Mus musculus [17]) was “Active”. The Activity (Mus musculus [18]) was “Active”, the Activity (Mus musculus [19]) was “Active” and the Activity (Mus musculus [20]) was “Active”. For the same compound, the Activity (Mus musculus [21]) was “Active”, the Activity (Mus musculus [22]) was “Active” and the Activity [2] was “Active; Compound Exhibited As Neutral Antagonist”.
In the case of `Cc1ccc(S(=O)(=O)N[C@H]2CCCOc3c2nn(-c2ccccc2Cl)c3-c2ccc(Cl)cc2)cc1`, the Activity [23] is reported as “Active”.
For `CS(=O)(=O)N[C@H]1CCCOc2c1nn(-c1ccccc1Cl)c2-c1ccc(Cl)cc1`, the Activity [2] was “Active; Compound Exhibited As Neutral Antagonist”.
